Data from ChEMBL document CHEMBL1147315, “A new spermatostatic glycoside from the soft coral Sinularia crispa” (J Nat Prod, 1989).
Calls of active or inactive are those of the source. The calls are words filed in the database; no cut-off is given here.

System: Spermatozoa
Assay: Spermatostatic activity in rat cauda epididymal spermatozoa assessed as motility effect at 0.5 mg/mL for 30 mins by microscopic method
Assay type: functional, cell-based

C=C(CC[C@@H](C)[C@H]1[C@@H](O)C[C@H]2[C@@H]3[C@@H](O)C=C4C[C@@H](O[C@@H]5O[C@@H](C)[C@@H](OC(C)=O)[C@@H](O)[C@@H]5O)CC[C@]4(C)[C@H]3CC[C@]12C)C(C)C
Activity: Active
